Consider 1 compound from patent publication US20150133411A1, “COMPOUNDS WITH TRPV4 ACTIVITY, COMPOSITIONS AND ASSOCIATED METHODS THEREOF” (The University of Utah Research Foundation, priority 2012, published 2015).

One assay deals with Müller cells. The assay is described as follows: Arachidonic acid-induced [Ca2+]i in Müller cells. In kind it is cell-based. To be noted: 1 μM, 10 μM arachidonic acid. How it is done: This response is blocked by Compound 1 (1 μM).
Assay [1] addresses T1, TRPV4 (Mus musculus, UniProt Q9EPK8). Nature of the assay: GSK-evoked [Ca++]i in retinal Müller glial cells. In kind it is cell-based. More on the design: endogenous in cells; host or cells: retinal Müller glial cells.
Assay [2] deals with T1, TRPV4. The assay is described as follows: AGB cation influx into retinal cells (anti-AGB antibody). To be noted: mouse retina. More on the design: these two cell types express TRPV4 channels in the mouse retina; from tissue; host or cells: mouse retina (retinal ganglion cells and Müller glial cells). In kind it is cell-based. The procedure:
FIG. 16 illustrates the effect of the TRPV4 agonist GSK on cation influx into mouse retinal cells of the mouse retina. The influx was determined using the anti-AGB antibody, as described by Marc R E (J Comp Neurol 407(1): 47-64, 1999). AGB is a membrane permeant cation that can flow through most known cation channels. Using an anti-AGB antibody, it can be determined where the cation flux occurs and, therefore, which cells are activated.

The subject of another assay is retinal ganglion cells. Nature of the assay: TUNEL assay of apoptotic cell death in retinas. In kind it is cell-based. To be noted: Compound 1 1 uM, RuR 10 μM. How it is done: Terminal deoxynucleotidyl transferase-mediated dUTP-biotin nick end labeling (TUNEL) is a common method for detecting fragmentation that results from apoptotic signaling cascades. Retinas were embedded, cryosectioned, and processed for the TUNEL assay following the protocol by Gavrieli et al. (1992). After 30 min. rehydration in 70% ethanol, 2×5 min. rinses in PBS and 1% Triton-X in 1% citrate buffer (pH 7.3), the slides were subjected to a final rinse in PBS. Slides were then incubated for 30 min. in the reaction buffer (30 mM Trizma-HCl, 140 mM cacodylate, 1.0 mM CaCl2, 0.2% Triton X-100, pH 7.2). Positive controls were treated with DNAse I (Roche Diagnostics; Branford, Conn.; 10 U/ml) in the reaction buffer. Next, slides were treated for 1 hour with 0.03 units/μl terminal transferase and 4 μM biotin-16-dUTP (Roche Diagnostics). The reaction was terminated in 30 mM Na+ citrate, 300 mM NaCl and 0.2% Triton X-100 in PBS (5 min.) and rinsed in PBS (2×5 min), exposed to 1% bovine serum albumin in PBS for 20 min and rinsed. Apoptotic cells were visualized with a confocal microscope (Zeiss LSM510) and categorized by size. […] This was blocked by RuR and by the TRPV4 antagonist Compound 1.

Assay [3] concerns MB mouse model of glaucoma. The assay is described as follows: IOP in microbead (MB) mouse model of glaucoma, IP dosing. In kind it is in vivo. To be noted: 10 mg/kg body weight IP; MB-injected mice. The procedure: FIG. 2 confirms that the mouse model for glaucoma causes RGC degeneration. Specifically, microbeads (MBs) were injected into the anterior chamber of a mouse eye. The MBs increase intraocular IOP above 15 mm Hg by blocking outflow of the aqueous humor within the anterior chamber of the eye. MBs were reinjected as needed to maintain a high IOP, typically one injection every two weeks. Contralateral eyes were injected intraocularly with the vehicle PBS (phosphate buffered saline) as controls. […] IOP levels were measured at least twice weekly before and after intraocular injections. After injections, mice recovered for 48 hours before IOP measurements resumed. […] Retinas were then removed and processed for immunohistochemistry (IHC). […] After rinsing with PBS, PBS containing the secondary antibody conjugated to fluorophores (Alexa 488 or Alexa 594; […] Retinas were rinsed and flat-mounted on microscope slides. Mounting medium was added and retinal wholemounts were coverslipped. The density of RGCs was imaged with a confocal microscope (Zeiss LSM 510) and quantified by counting NeuN-, CFP- and/or Tuj-1-labeled somata in the RGC layer of the retinal wholemount preparation. Injection of microbeads induces RGC degeneration after 8 weeks but not after 4 weeks. […] Mice were sedated with IP injection of Avertin with final amount calculated by weight (e.g., 0.5 ml for 21-24 g animals). […]

T1 sequence (Q9EPK8 whole entry): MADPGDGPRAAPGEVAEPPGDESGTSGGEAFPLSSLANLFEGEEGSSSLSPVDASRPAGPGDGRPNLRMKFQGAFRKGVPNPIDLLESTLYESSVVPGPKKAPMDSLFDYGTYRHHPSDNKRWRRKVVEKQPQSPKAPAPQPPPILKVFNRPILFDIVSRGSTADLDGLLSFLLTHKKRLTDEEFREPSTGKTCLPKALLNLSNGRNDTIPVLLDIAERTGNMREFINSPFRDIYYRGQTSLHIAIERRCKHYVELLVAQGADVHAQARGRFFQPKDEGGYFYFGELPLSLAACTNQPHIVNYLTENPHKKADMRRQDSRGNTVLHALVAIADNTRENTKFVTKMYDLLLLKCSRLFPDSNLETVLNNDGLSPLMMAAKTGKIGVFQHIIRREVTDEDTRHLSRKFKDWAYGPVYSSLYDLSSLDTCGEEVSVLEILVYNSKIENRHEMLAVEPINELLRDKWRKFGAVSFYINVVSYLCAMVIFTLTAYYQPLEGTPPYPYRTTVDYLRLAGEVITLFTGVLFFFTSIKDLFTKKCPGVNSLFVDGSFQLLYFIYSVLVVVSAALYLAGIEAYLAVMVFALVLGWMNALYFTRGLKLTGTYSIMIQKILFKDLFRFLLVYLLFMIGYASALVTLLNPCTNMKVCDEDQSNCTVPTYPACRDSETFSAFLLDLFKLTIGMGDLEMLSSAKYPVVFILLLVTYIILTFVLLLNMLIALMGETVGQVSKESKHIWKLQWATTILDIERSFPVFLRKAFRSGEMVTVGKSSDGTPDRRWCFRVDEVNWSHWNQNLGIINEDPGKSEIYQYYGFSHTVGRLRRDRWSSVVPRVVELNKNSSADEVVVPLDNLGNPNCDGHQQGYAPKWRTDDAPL

For `Cc1c(C(=O)Nc2cccc(C(F)(F)F)c2)cc(-c2ccccc2)n1CCCN1CCOCC1` [Compound 1, N-(3-(trifluoromethyl)phenyl)-2-methyl-1-(3-morpholinopropyl)-5-phenyl-1H-pyrrole-3-carboxamide], in the assay on Müller cells, the “effect on arachidonic acid-induced [Ca2+]i increase” value is “blocked”. Besides, the “effect on GSK-evoked increase in [Ca++]i” value on TRPV4 [1] (retinal Müller glial cells) was “blocked”. Further, the “reversibility of effect on glial calcium levels” value at TRPV4 [1] (superfusion with control saline) was “reversible, as it can be washed out by 10 minute superfusion with control saline”. Moreover, the “effect on GSK-induced AGB cation influx” value at TRPV4 [2] is “strongly antagonized”. Besides, in the assay on retinal ganglion cells (190 mOsm saline), the “apoptotic cell death induced by hypotonic swelling (TUNEL)” value is “block apoptotic cell death”. Moreover, the “apoptotic cell death induced by TRPV4 agonist GSK (TUNEL)” value in the assay with retinal ganglion cells (GSK 100 nM) is recorded as “block apoptotic cell death”. For the same compound, the “MB-induced increase in IOP” value in assay [3] was “blocked the increase in IOP to the level observed in control mice”.
